Tested on: wild type C. elegans
Assay: Longevity curves of C. elegans in the presence of the steroid sulfatase inhibitor
Format: in vivo
Settings: for longevity (longevity curve) versus control population exposed to the inhibitor solvent (DMSO): 25° C., p=0.0139, n>100, FIG. 3
Method: In order to generate the longevity curves, the strains under study and their pertinent controls were first subjected to an egg preparation in order to prevent contaminations and synchronise them at the embryonic stage, and, subsequently, they were incubated at 16° C. In order to prevent interferences caused by physiological stresses resulting from this process, they were allowed to grow to the following generation. 5 or 6 L4 per plate were then transferred to 4 plates, and were once again incubated at 16° C. to L4, the stage selected to start the longevity curves.
On day zero, 120 L4 of each strain were transferred to new plates, 20 worms per plate, and incubated at the temperature at which the assay was subsequently performed, i.e. 25° C.
During the first week of the curves, the nematodes were transferred to new plates every 2 days, in order to prevent confusions with potential descendants. Subsequently, they were checked every 2 or 3 days, and those specimens that were lost or dead for non-physiological reasons were withdrawn from the study. The individuals were transferred to new plates every 5 days in order to maintain optimal growth conditions in the plates. The specimens were considered to be dead when they ceased to respond upon being softly touched with the platinum wire.
The longevity was studied in the presence of the steroid sulfatase inhibitor STX64 (SIGMA, S1950-5MG) diluted in DMSO at 5 μg/μl. […] The preparation and synchronisation of the nematodes until day=0 was the same as in the preceding case, the only difference being that the nematodes were transferred to fresh plates every two or three days until the curve was completed.
We used the GraphPad Prism 5 programme (Version 5.0a, for Mac OS X. 1992-2008 GraphPad Software, Inc.) in the survival curve mode to represent the longevity curves, and the Kaplan-Meier method was used to perform the statistical analysis thereof. […]

With NS(=O)(=O)Oc1ccc2c3c(c(=O)oc2c1)CCCCC3 [STX64, Irosustat] as the molecule, how does the “effect of treatment on ageing” value (C. elegans, FIG. 3) read?
The value was “delayed ageing”.

What about the “longevity (longevity curve) versus control population exposed to the inhibitor solvent (DMSO)” value (wild type population supplemented with 0.5 μg/ml) of the same molecule?
The value was “lives significantly longer”.

And the “longevity (longevity curve) versus control population exposed to the inhibitor solvent (DMSO)” value (wild type population supplemented with 1 μg/ml)?
The value was “lives significantly longer”.

— patent US20160361244A1, “USE OF THE INHIBITOR OF STEROID SULFATASES STX64 FOR TREATING AGING” (U[…] DE OLAVIDE, priority 2013, published 2016)
